Experiments:
[1] = target: T1, human EP4 receptors (Homo sapiens, UniProt P35408); experiment: Human EP4 Scintillation Proximity Assay (SPA), [3H]-prostaglandin E2 competition binding
T1 construct: expressed in transfected cells; host or cells: Chinese Hamster Ovary (CHO) cells infected with Semliki Forest Virus carrying an SFV-1 RNA construct with the hEP4 receptor; membranes were prepared from these cells
Description: Quantification of radioligand binding by scintillation proximity assay (SPA) is a long-established principle. Briefly, the affinity of compounds for a receptor is assessed by the specific competition between known quantities of radiolabelled ligand and compound for that receptor. Increasing concentrations of compound reduce the amount of radiolabel that binds to the receptor. This gives rise to a diminishing scintillation signal from SPA beads coated with membranes that bear the receptor. The signal may be detected with a suitable scintillation counter and the data generated may be analysed with suitable curve-fitting software.
The human EP4 SPA assay (hereafter referred to as ‘the assay’) utilises membranes prepared from Chinese Hamster Ovary (CHO cells) infected with Semliki Forest Virus (SFV). […]
For assay, membranes expressing human EP4 receptors are diluted in a pH-buffered medium and mixed with SPA beads coated with a suitable substance to facilitate the adhesion of membranes to the beads. […] Nonspecific binding (nsb) may be determined by competition between the radiolabelled ligand and a saturating concentration of unlabelled ligand. In order to quantify the affinity of EP4 receptor ligands, compounds are diluted in a stepwise manner across the wells of a 96-well plate. […] The affinity (pKi) of the compound may be calculated from the IC50 by application of the Cheng-Prusoff correction. […]

[2] = test system: CCI-induced neuropathic hypersensitivity in male random hooded rats; experiment: Chronic constriction injury (CCI) model of neuropathic hypersensitivity, paw withdrawal threshold; type: in vivo, rat; conditions: 10 mgkg-1 b.i.d. PO
From the text: Under isoflurane anaesthesia, the common left sciatic nerve was exposed at mid thigh level and four loose ligatures of Chromic gut tied around it. The wound was then closed and secured using suture clips. The surgical procedure was identical for the sham operated animals except the sciatic nerve was not ligated. The rats were allowed a period of seven days to recover from the surgery before behavioural testing began.

T1 sequence (P35408 whole entry): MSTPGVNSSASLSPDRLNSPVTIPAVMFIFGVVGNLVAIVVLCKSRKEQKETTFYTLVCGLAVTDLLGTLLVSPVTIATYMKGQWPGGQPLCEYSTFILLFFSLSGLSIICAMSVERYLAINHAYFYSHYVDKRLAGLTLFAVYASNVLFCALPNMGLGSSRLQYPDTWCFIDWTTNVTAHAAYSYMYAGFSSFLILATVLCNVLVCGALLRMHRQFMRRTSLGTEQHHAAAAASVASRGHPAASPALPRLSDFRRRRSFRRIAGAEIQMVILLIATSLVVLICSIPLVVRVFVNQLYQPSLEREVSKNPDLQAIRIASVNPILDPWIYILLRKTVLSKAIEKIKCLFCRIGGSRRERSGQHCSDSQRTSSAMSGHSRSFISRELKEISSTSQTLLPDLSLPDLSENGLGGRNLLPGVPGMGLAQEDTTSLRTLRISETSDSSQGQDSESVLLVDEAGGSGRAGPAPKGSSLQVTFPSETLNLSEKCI

CCOc1c2c(c(OCC)c3ccccc13)C(=O)N(c1ccc(CC(=O)O)cc1)C2 [IF, [4-(4,9-diethoxy-1-oxo-1,3-dihydro-2H-benzo[f]isoindol-2-yl)phenyl]acetic Acid]
Ki [1]: 100 nM
time of chronic dosing until reversal became apparent ([2]; days 20-33 postoperative): 3 days
time of chronic dosing until reversal was maximal ([2]; days 20-33 postoperative): 1 week
effect on CCI-induced decrease in paw withdrawal threshold ([2]; dosed chronically for 14 days (days 20-33 postoperative)): reversal of the CCI-induced decrease in paw withdrawal threshold
paw withdrawal threshold following cessation of the drug treatment ([2]; after the 14-day dosing period): returned to that of the vehicle treated CCI-operated animals
